Reference: patent US6645514B1, “Increasing skin cell renewal with water-soluble Vitamin E” (Access Business Group International, LLC, priority 2002, dated 2003)

Legend:
skin [1] = assay: skin cell-renewal (exfoliation) rate after topical application; type: in vivo, human
Procedure: (§1) Skin irritation, expressed as a “Sting” percentage, was also determined. The increase in skin cell renewal rate and irritation level was measured substantially according to the procedure described in Soap/Cosmetics/Chemical Specialties for September 1993 at pp. 54-58 and 76.

skin [2] = assay: skin irritation level (Sting %) after topical application; type: in vivo, human
Procedure: as §1

[3] = cited from earlier work
[4] = 0.5 wt % active, composition pH 5.65
[5] = 1.0 wt % active, composition pH 7.21

Row | Structure (SMILES) | Cell-Renewal Rate % (skin [1]; 5 wt % active, composition pH 3) [%] | Cell-Renewal Rate % (skin [1]; [4]) [%] | Cell-Renewal Rate % (skin [1]; [5]) [%] | Irritation Level (Sting %) (skin [2]; [4]) [%] | Irritation Level (Sting %) (skin [2]; [5]) [%] | irritation to the skin relative to Lactic Acid (skin [2]; at pH 7.21, relative to Lactic Acid) | times less irritating to the skin than Lactic Acid (skin [2]; relative to Lactic Acid 5 wt %, pH 3) | solubility in water [3]
1 | CC(O)C(=O)O (centres unmarked) [Lactic Acid, reference compound] | 31.7 | – | – | – | – | – | – | –
2 | Cc1c(C)c2c(c(C)c1OP(=O)(O)O)CC[C@@](C)(CCC[C@H](C)CCC[C@H](C)CCCC(C)C)O2 [VEP, Sodium Vitamin E Phosphate] | – | 15.2 | 16.6 | 17.3 | 10.7 | about one-twentieth | at least 4.5 times | soluble in water
